Data: patent US20250059179A1, “Heterocyclic Compounds and Methods of Use” (AMGEN INC., priority 2021, published 2025)

Experiments:
[1] = molecular target: GDP-bound KRAS protein (aa 1-169), containing both G12D and C118A amino acid substitutions (Homo sapiens, UniProt P01116, C118A/G12D); experiment: KRAS G12D Coupled Nucleotide Exchange Assay; assay type: biochemical; conditions: 2 h compound pre-incubation; SOS-mediated nucleotide exchange, cRAF AlphaScreen readout;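 also: IC50 obtained by fitting the AlphaScreen signal with a four-parameter logistic curve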
GDP-bound KRAS protein (aa 1-169), containing both G12D and C118A amino acid substitutions, sequence (P01116 1-169 isoform P01116-2 G12D/C118A): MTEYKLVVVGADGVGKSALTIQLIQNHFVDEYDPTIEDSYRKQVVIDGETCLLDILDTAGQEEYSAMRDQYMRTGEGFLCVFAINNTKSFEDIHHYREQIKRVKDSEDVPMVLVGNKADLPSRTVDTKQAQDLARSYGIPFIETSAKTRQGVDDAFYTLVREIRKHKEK

[2] = molecular target: His-tagged KRAS G12D protein (Homo sapiens, UniProt P01116, G12D); experiment: KRAS G12D TR-FRET Assay; assay type: binding; conditions: biotinylated KRPep-2d substrate, 10 μM GDP;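 also: europium anti-His antibody paired with streptavidin-d2 as FRET partners, initial 30 min incubation, then peptide 1 h and detection reagents 1 h, all at room temperature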
His-tagged KRAS G12D protein, sequence (P01116 1-188 isoform P01116-2 G12D): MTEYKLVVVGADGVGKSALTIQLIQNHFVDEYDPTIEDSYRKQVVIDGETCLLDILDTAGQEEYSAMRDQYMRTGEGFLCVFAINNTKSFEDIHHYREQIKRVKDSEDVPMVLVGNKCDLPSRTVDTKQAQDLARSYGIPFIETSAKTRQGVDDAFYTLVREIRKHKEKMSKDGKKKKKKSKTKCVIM

Row | SMILES | Avg 2 h Coupled Exchange IC50 [1] [nM] | IC50 [2] [nM]
1 | CN1CCC[C@H]1COc1nc(N2C[C@H]3CC[C@@H]2CN3)c2cc(Cl)c(-c3cccc4sc(N)nc34)c(F)c2n1 [Example 27, 4-(4-((1R,4R)-2,5-diazabicyclo[2.2.2]octan-2-yl)-6-chloro-8-fluoro-2-(((S)-1-methylpyrrolidin-2-yl)methoxy)quinazolin-7-yl)benzo[d]thiazol-2-amine] | 429 | 1210
2 | CN1C[C@H](F)C[C@H]1COc1nc(N2C[C@H]3COC[C@@H](C2)N3)c2cc(Cl)c(-c3ccc(F)c4sc(N)nc34)c(F)c2n1 [Example 41, 4-(4-((1R,5S)-3-oxa-7,9-diazabicyclo[3.3.1]nonan-7-yl)-6-chloro-8-fluoro-2-(((2S,4R)-4-fluoro-1-methylpyrrolidin-2-yl)methoxy)quinazolin-7-yl)-7-fluorobenzo[d] thiazol-2-amine] | 65 | 79
3 | Nc1nc2c(-c3c(Cl)cc4c(N5C[C@H]6COC[C@@H](C5)N6)nc(OC[C@@]56CCCN5C[C@H](F)C6)nc4c3F)ccc(F)c2s1 [Example 42, 4-(4-((1R,5S)-3-oxa-7,9-diazabicyclo[3.3.1]nonan-7-yl)-6-chloro-8-fluoro-2-(((2R,7aS)-2-fluorotetrahydro-1H-pyrrolizin-7a(5H)-yl)methoxy)quinazolin-7-yl)-7-fluorobenzo[d] thiazol-2-amine] | 12 | 12
4 | Nc1nc2c(-c3c(Cl)cc4c(N5CCNCC5)nc(OCC56CCCN5C(=O)CC6)nc4c3F)cccc2s1 (centres unmarked) [Example 43, 7a-(((7-(2-aminobenzo[d]thiazol-4-yl)-6-chloro-8-fluoro-4-(piperazin-1-yl)quinazolin-2-yl)oxy)methyl)hexahydro-3H-pyrrolizin-3-one] | 3290 | 3190
5 | Nc1nc2c(-c3c(Cl)cc4c(N5CCNCC5)nc(OCC56CCCN5CCC6)nc4c3F)cccc2s1 [Example 44, 4-(6-chloro-8-fluoro-4-(piperazin-1-yl)-2-((tetrahydro-1H-pyrrolizin-7a(5H)-yl)methoxy)quinazolin-7-yl)benzo[d] thiazol-2-amine] | 14 | 30
6 | C[C@@H](CN(C)C)Oc1nc(N2CCNCC2)c2cc(Cl)c(-c3cccc4sc(N)nc34)c(F)c2n1 [Example 48, 4-(6-chloro-2-(((S)-1-(dimethylamino)propan-2-yl)oxy)-8-fluoro-4-(piperazin-1-yl)quinazolin-7-yl)benzo[d] thiazol-2-amine] | 26 | 159
7 | CN1C[C@H](F)C[C@H]1COc1nc(N2CCNCC2)c2cc(Cl)c(-c3cccc4sc(N)nc34)c(F)c2n1 [Example 49, 4-(6-chloro-8-fluoro-2-(((2S,4R)-4-fluoro-1-methyl-pyrrolidin-2-yl)methoxy)-4-(piperazin-1-yl)quinazolin-7-yl)benzo[d] thiazol-2-amine] | 38 | 141
8 | Nc1nc2c(-c3c(Cl)cc4c(N5CCNCC5)nc(OCC56CCCN5CC(F)(F)C6)nc4c3F)cccc2s1 (centres unmarked) [Example 54, 4-(6-chloro-2-((2,2-difluorotetra-hydro-1H-pyrrolizin-7a(5H)-yl)methoxy)-8-fluoro-4-(piperazin-1-yl)quinazolin-7-yl)benzo[d] thiazol-2-amine] | 79 | 87
9 | Nc1nc2c(-c3c(Cl)cc4c(N5CCNCC5)nc(OC[C@@H]5C[C@H](F)CN5)nc4c3F)cccc2s1 [Example 55, 4-(6-chloro-8-fluoro-2-(((2S,4S)-4-fluoro-pyrrolidin-2-yl)methoxy)-4-(piperazin-1-yl)quinazolin-7-yl)benzo[d] thiazol-2-amine] | 106 | 285
10 | Nc1nc2c(-c3c(Cl)cc4c(N5CCNCC5)nc(OC[C@@H]5CC(F)(F)CN5)nc4c3F)cccc2s1 [Example 59, 4-(6-chloro-2-(((S)-4,4-difluoro-pyrrolidin-2-yl)methoxy)-8-fluoro-4-(piperazin-1-yl)quinazolin-7-yl)benzo[d] thiazol-2-amine] | 321 | 687
11 | CN1C[C@@H](F)C[C@H]1COc1nc(N2CCNCC2)c2cc(Cl)c(-c3cccc4sc(N)nc34)c(F)c2n1 [Example 62, 4-(6-chloro-8-fluoro-2-(((2S,4S)-4-fluoro-1-methyl-pyrrolidin-2-yl)methoxy)-4-(piperazin-1-yl)quinazolin-7-yl)benzo[d] thiazol-2-amine] | 394 | 673
12 | CCN1CCC(COc2nc(N3CCNCC3)c3cc(Cl)c(-c4cccc5sc(N)nc45)c(F)c3n2)CC1 [Example 63, 4-(6-chloro-2-((1-ethylpiperidin-4-yl)methoxy)-8-fluoro-4-(piperazin-1-yl)quinazolin-7-yl)benzo[d] thiazol-2-amine] | 429 | 473
13 | CN1CC(F)(F)C[C@H]1COc1nc(N2CCNCC2)c2cc(Cl)c(-c3cccc4sc(N)nc34)c(F)c2n1 [Example 65, 4-(6-chloro-2-(((S)-4,4-difluoro-1-methyl-pyrrolidin-2-yl)methoxy)-8-fluoro-4-(piperazin-1-yl)quinazolin-7-yl)benzo[d] thiazol-2-amine] | 504 | 1840
14 | Nc1nc2c(-c3c(Cl)cc4c(N5CCNCC5)nc(OC[C@@H]5CCCN5CC(F)F)nc4c3F)cccc2s1 [Example 66, 4-(6-chloro-2-(((S)-1-(2,2-difluoroethyl)pyrrolidin-2-yl)methoxy)-8-fluoro-4-(piperazin-1-yl)quinazolin-7-yl)benzo[d] thiazol-2-amine] | 549 | 1620
15 | CN(C)C1CN(c2nc(N3CCNCC3)c3cc(Cl)c(-c4cccc5sc(N)nc45)c(F)c3n2)C1 [Example 67, 4-(6-chloro-2-(3-(dimethylamino)azetidin-1-yl)-8-fluoro-4-(piperazin-1-yl)quinazolin-7-yl)benzo[d] thiazol-2-amine] | 670 | 1620
16 | Nc1nc2c(-c3c(Cl)cc4c(N5CCNCC5)nc(OC[C@@H]5CCC(=O)N5)nc4c3F)cccc2s1 [Example 68, (5S)-5-(((7-(2-aminobenzo[d]thiazol-4-yl)-6-chloro-8-fluoro-4-(piperazin-1-yl)quinazolin-2-yl)oxy)methyl) pyrrolidin-2-one] | 718 | 829
17 | C[C@H](CN(C)C)Oc1nc(N2CCNCC2)c2cc(Cl)c(-c3cccc4sc(N)nc34)c(F)c2n1 [Example 69, 4-(6-chloro-2-(((R)-1-(dimethylamino)propan-2-yl)oxy)-8-fluoro-4-(piperazin-1-yl)quinazolin-7-yl)benzo[d] thiazol-2-amine] | 1890 | 7720

Further lines, results first:

Row | Avg 2 h Coupled Exchange IC50 [1] [nM] | IC50 [2] [nM] | SMILES
18 | 114 | 168 | CN1CCC[C@H]1COc1nc(N2CCCNC(=O)C2)c2cc(Cl)c(-c3cccc4sc(N)nc34)c(F)c2n1 [Example 22, 4-(7-(2-aminobenzo[d]thiazol-4-yl)-6-chloro-8-fluoro-2-(((S)-1-methylpyrrolidin-2-yl)methoxy)quinazolin-4-yl)-1,4-diazepan-2-one]
19 | 166 | 678 | CN1CCC[C@H]1COc1nc(N2CCNC(=O)C2)c2cc(Cl)c(-c3cccc4sc(N)nc34)c(F)c2n1 [Example 23, 4-(7-(2-aminobenzo[d]thiazol-4-yl)-6-chloro-8-fluoro-2-(((S)-1-methylpyrrolidin-2-yl)methoxy)quinazolin-4-yl)piperazin-2-one]
20 | 172 | 158 | CN1CCC[C@H]1COc1nc(N2CCNC(=O)CC2)c2cc(Cl)c(-c3cccc4sc(N)nc34)c(F)c2n1 [Example 24, 1-(7-(2-aminobenzo[d]thiazol-4-yl)-6-chloro-8-fluoro-2-(((S)-1-methylpyrrolidin-2-yl)methoxy)quinazolin-4-yl)-1,4-diazepan-5-one]
21 | 181 | 239 | CN1CCC[C@H]1COc1nc(N2CCN[C@@H](CO)C2)c2cc(Cl)c(-c3cccc4sc(N)nc34)c(F)c2n1 [Example 25, ((2R)-4-(7-(2-aminobenzo[d]thiazol-4-yl)-6-chloro-8-fluoro-2-(((S)-1-methylpyrrolidin-2-yl)methoxy)quinazolin-4-yl)piperazin-2-yl)methanol]
22 | 409 | 1210 | CN1CCC[C@H]1COc1nc(N2CCN[C@@H](CC#N)C2)c2cc(Cl)c(-c3cccc4sc(N)nc34)c(F)c2n1 [Example 26, 2-((2S)-4-(7-(2-aminobenzo[d]thiazol-4-yl)-6-chloro-8-fluoro-2-(((S)-1-methylpyrrolidin-2-yl)methoxy)quinazolin-4-yl)piperazin-2-yl)acetonitrile]
23 | 2250 | 5850 | CN1CCC[C@H]1COc1nc(N2CCNC[C@@H]2CCO)c2cc(Cl)c(-c3cccc4sc(N)nc34)c(F)c2n1 [Example 36, 2-((2S)-1-(7-(2-aminobenzo[d]thiazol-4-yl)-6-chloro-8-fluoro-2-(((S)-1-methylpyrrolidin-2-yl)methoxy)quinazolin-4-yl)piperazin-2-yl)ethan-1-ol]
24 | 388 | 1970 | CN1CCC[C@H]1COc1nc(N2CCNC[C@@H]2CO)c2cc(Cl)c(-c3cccc4sc(N)nc34)c(F)c2n1 [Example 37, ((2R)-1-(7-(2-aminobenzo[d]thiazol-4-yl)-6-chloro-8-fluoro-2-(((S)-1-methylpyrrolidin-2-yl)methoxy)quinazolin-4-yl)piperazin-2-yl)methanol]
25 | 446 | 1190 | CN1CCCC[C@H]1COc1nc(N2CCNCC2)c2cc(Cl)c(-c3cccc4sc(N)nc34)c(F)c2n1 [Example 64, 4-(6-chloro-8-fluoro-2-(((S)-1-methyl-piperidin-2-yl)methoxy)-4-(piperazin-1-yl)quinazolin-7-yl)benzo[d] thiazol-2-amine]
